# Like-named read-outs stand apart in the source and are kept apart here.
# Assays:
# HCV genotype 1b replicon = experiment: microbe, parasite or virus in culture; assay type: cell-based, hepatitis C virus
# in vitro [1] = details: human
# HCoV-229E = experiment: Anti-human coronavirus 229E activity in MRC5 cells; assay type: cell-based; details: 72 h, viral cytopathic effect
# in vitro [2] = details: human; remark: listed apart in the source
# CypB = molecular target: T1, CypB (Homo sapiens, UniProt P23284); experiment: biochemical; assay type: biochemical
# T1 construct: hexahistidine tag (His-Tag) (C); made in house; host or cells: E. coli C41(DE3)
# T1 sequence (P23284 34-216): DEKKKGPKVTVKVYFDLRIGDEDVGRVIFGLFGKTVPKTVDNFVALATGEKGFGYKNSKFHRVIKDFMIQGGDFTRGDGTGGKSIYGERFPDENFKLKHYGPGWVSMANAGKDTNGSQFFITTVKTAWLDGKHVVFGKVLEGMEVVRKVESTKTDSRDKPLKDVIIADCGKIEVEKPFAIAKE
# Method: (§1) CypA and CypB proteins carrying a hexahistidine tag (His-Tag) at their carboxy terminus were expressed in E. coli and purified. Briefly, cultures of C41(DE3) cells were grown at 37 °C for 1 h until the culture reached an OD of 0.6 at 600 nm and then induced with 1 mM isopropyl-β-D-thiogalactopyranoside for 4 h at 37 °C (CypA) or overnight at 22 °C (CypB). Cell pellets were resuspended in a lysis buffer 20 mM NaH2PO4 pH 7.8, 300 mM NaCl, 7 mM β-mercaptoethanol, 1 mg ml^−1 lysozyme, 0.1 U μl^−1 desoxyribonuclease and complete protease inhibitor tablets (Roche Diagnostics Corporation, Indianapolis, Indiana). […] The bound protein was eluted in 1 ml fractions with a buffer composed of 20 mM NaH2PO4 pH 7.8, 300 mM NaCl, 250 mM imidazole, 7 mM β-mercaptoethanol and 10% glycerol, monitored by the Bradford colorimetric assay. The purity of each cyclophilin was determined by Coomassie-stained SDS–PAGE analysis.
# CypA = molecular target: T2, CypA (Homo sapiens, UniProt P62937); experiment: PPIase enzyme assay (chymotrypsin-coupled), CypA; assay type: biochemical; details: 20 °C, mean±s.d.
# T2 construct: hexahistidine tag (His-Tag) (C); made in house; host or cells: E. coli C41(DE3)
# T2 sequence (P62937 whole entry): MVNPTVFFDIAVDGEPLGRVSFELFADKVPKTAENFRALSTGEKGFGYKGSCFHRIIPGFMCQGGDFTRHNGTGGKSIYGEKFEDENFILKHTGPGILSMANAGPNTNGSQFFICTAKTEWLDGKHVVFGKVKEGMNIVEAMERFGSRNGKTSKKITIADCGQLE
# Method: as §1
# CypD = CypD (Homo sapiens, UniProt P30405, K175I); experiment: PPIase enzyme assay (chymotrypsin-coupled), CypD; details: for LE (ligand efficiency): Supplementary Figure 1, NMR fragment hits
# Chain of CypD (P30405 44-207 K175I): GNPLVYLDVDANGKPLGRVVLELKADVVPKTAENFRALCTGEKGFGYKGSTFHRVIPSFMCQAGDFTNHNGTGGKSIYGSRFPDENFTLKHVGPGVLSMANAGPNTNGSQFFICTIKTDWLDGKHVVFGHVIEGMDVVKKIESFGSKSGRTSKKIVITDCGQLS
# Method: (§2) Cyclophilin PPIase activity was measured at 20 °C by using the standard chymotrypsin-coupled assay. […] Then, 5 μl of 50 mg ml^−1 chymotrypsin in 1 mM HCl was added. […] After a delay from the onset of mixing, the absorbance of p-nitroaniline was followed at 390 nm until the reaction was complete (1 min). The final concentration of LiCl in the assay was 20 mM and TFE was present at a concentration of 4% (v/v). Absorbance readings were collected every 1 s by a spectrophotometer. For inhibition assessment, 5 μl of the tested compound in dimethyl sulfoxide (DMSO) was added to the cyclophilin solution in the assay buffer. […] The percentage inhibition of cyclophilin PPIase activity was calculated from the slopes and the values obtained represent the mean±s.d. of at least two independent measurements.
# [3] = molecular target: cyclophilin PPIase activity; experiment: PPIase enzyme assay, cyclophilin not specified; assay type: biochemical, human; details: compounds lacking the ester function; read-out: cyclophilin inhibition IC50
# Method: as §2
# HIV-IIIb = experiment: Anti-HIV activity in MT4 cells; assay type: cell-based, human immunodeficiency virus; details: 5 days
# Huh7 cells = experiment: Cellular toxicity in Huh7 replicon cells; details: read-out: HCV genotype 1b replicon CC50; Huh7 cells
# MT4 cells = experiment: Cytotoxicity in uninfected MT4 cells; details: read-out: MT4 cells CC50
# MRC5 cells = experiment: Cellular toxicity in MRC5 cells; details: read-out: MRC5 cells CC50; MRC5 cells
# mPTP = test system: mPTP; design: method as in Panel M, Ahmed-Belkacem A, et al., manuscript in preparation; details: as a result of CypD inhibition; ref Panel M, Ahmed-Belkacem A, et al., manuscript in preparation; cited from earlier work
# calcineurin = experiment: Calcineurin phosphatase assay; assay type: biochemical; details: binary complex with CypA, 1:1 molar ratio
# Method: The inhibition of calcineurin phosphatase activity was measured by measuring the dephosphorylation of p-nitrophenyl phosphate (R&D Systems, Minneapolis, USA), according to the manufacturer’s instructions. […] After p-nitrophenyl phosphate addition, the reaction was run for 35 min at 37 °C. The reaction was terminated by addition of BIOMOL green reagent and OD was measured at 630 nm. The results are the means of three independent experiments performed in duplicate. They are presented as the percentage of calcineurin activity relative to that in the inhibitor-free control.
# [4] = test system: IL-2 production in Jurkat cells; experiment: Inhibition of IL-2 production in Jurkat cells; assay type: cell-based; details: stimulated Jurkat cells
# Method: Duplicate evaluations were included for each test concentration. […] After a 6 h incubation, sample supernatants were collected for measurement of IL-2 production using a commercial kit (Quantikine ELISA, R&D Systems).
# [5] = Cellular toxicity in Huh7 replicon cells; details: human, Huh7 cells with HCV genotype 1b replicon
# [6] = Cellular toxicity in MRC5 cells; details: human, MRC-5 cells
# [7] = Hepatitis C virus, Huh-7, 72 h, read-out: HCV genotype 1b replicon EC50
# [8] = PPIase enzyme assay, 20 °C, mean±s.d., read-out: CypB IC50
# [9] = read-out: CypD IC50, PPIase enzyme assay, 20 °C, mean±s.d.
# [10] = Huh7 cells, 3 days, HCV RNA, read-out: HCV genotype 1b replicon EC50
# [11] = wild-type genotype 1b replicon, comparison with mutated replicons (Table 3), read-out: EC50 HCV (WT) subgenomic replicon
smiles,measurement,setting,value
"C/C=C/C[C@@H](C)[C@@H](O)[C@H]1C(=O)N[C@@H](CC)C(=O)N(C)[C@H](C)C(=O)N(CC)[C@@H](C(C)C)C(=O)N[C@@H](C(C)C)C(=O)N(C)[C@@H](CC(C)C)C(=O)N[C@@H](C)C(=O)N[C@H](C)C(=O)N(C)[C@@H](CC(C)C)C(=O)N(C)[C@@H](CC(C)C)C(=O)N(C)[C@@H](C(C)C)C(=O)N1C [Alisporivir, alisporivir, reference compound]",EC50,HCV genotype 1b replicon; [7],0.01 ± 0.0007 µM
same,EC50,"HCV genotype 1b replicon; Hepatitis C virus, Huh-7, read-out: EC50 HCV (WT) subgenomic replicon",0.04 ± 0.0005 µM
same,CC50,in vitro [1],32.3 ± 22 µM
same,EC50,HCoV-229E; Human coronavirus 229E,2.6 ± 0.6 µM
same,CC50 at 72 h,in vitro [2],9.7 ± 2.2 µM
same,IC50,CypB,0.04 ± 0.012 µM
same,IC50,CypA,0.07 ± 0.003 µM
same,IC50,CypD,0.03 ± 0.005 µM
Nc1ccc(CNC(=O)NCC(=O)N2CCCC2)cc1 [Compound 23],IC50,[3],> 500 µM
same,IC50,CypB; [8],> 500 µM
same,IC50,CypA,> 500 µM
same,IC50,CypD; [9],> 500 µM
COc1ccccc1C1CCCN1C(=O)CNC(=O)NCc1ccc(N)cc1 (stereo not drawn) [Compound 24],IC50,CypB; [8],1.2 ± 0.1 µM
same,IC50,CypA,2.8 ± 0.6 µM
same,IC50,CypD; [9],11.4 ± 3 µM
Nc1ccc(CNC(=O)NCC(=O)N2CCCC2c2ccccc2Cl)cc1 (stereo not drawn) [Compound 25],IC50,CypB; [8],3.7 ± 1.4 µM
same,IC50,CypA,3.4 ± 0.7 µM
same,IC50,CypD; [9],6.2 ± 2.3 µM
Nc1ccc(CNC(=O)NCC(=O)N2CCCC2c2ccccc2Br)cc1 (stereo not drawn) [Compound 26],EC50,HIV-IIIb,3.6 ± 0.8 µM
same,EC50,HCV genotype 1b replicon; [10],6 ± 0.7 µM
same,EC50,HCoV-229E,66.3 ± 24 µM
same,CC50,Huh7 cells,> 100 µM
same,CC50,MT4 cells,> 53 µM
same,CC50,MRC5 cells,> 100 µM
CSc1ccccc1C1CCCN1C(=O)CNC(=O)NCc1ccc(N)cc1 (stereo not drawn) [Compound 27],EC50,HIV-IIIb,6.8 ± 2.3 µM
same,EC50,HCV genotype 1b replicon; [10],2.7 ± 2.5 µM
same,EC50,HCV genotype 1b replicon; [11],5.6 ± 0.7 µM
same,EC50,HCoV-229E,34.6 ± 18.3 µM
same,CC50,Huh7 cells,> 100 µM
same,CC50,MT4 cells,> 53 µM
same,IC50,CypA,0.4 ± 0.1 µM
same,IC50,CypD; [9],0.6 ± 0.1 µM
same,CC50,MRC5 cells,> 100 µM
Nc1ccc(CNC(=O)NCC(=O)N2CCCC2c2cccc3ccccc23)cc1 (stereo not drawn) [Compound 28],IC50,CypB; [8],1.8 ± 0.9 µM
same,IC50,CypA,1.5 ± 0.5 µM
same,IC50,CypD; [9],1.4 ± 0.2 µM
CSc1ccccc1C1CCCN1C(=O)C(NC(=O)NCc1ccc(N)cc1)c1ccccc1 (stereo not drawn) [Compound 31],mPTP opening,mPTP,inhibits mPTP opening
same,EC50 fold higher than the EC50 of alisporivir,"HCV genotype 1b replicon; HCV genotype 1b replicon, Huh7 cells",~40
same,EC50,HCV genotype 1b replicon; [10],0.4 ± 0.3 µM
same,EC50,HCV genotype 1b replicon; [11],0.3 ± 0.16 µM
same,inhibition of calcineurin phosphatase activity,calcineurin,no inhibition was observed
same,EC50,HCoV-229E,44.7 ± 2.2 µM
same,EC50,[4],> 20 µM
same,CC50,Huh7 cells,> 100 µM
same,IC50,CypB; [8],0.08 ± 0.04 µM
same,IC50,CypA,0.1 ± 0.07 µM
same,IC50,CypD; [9],0.2 ± 0.08 µM
same,CC50,MRC5 cells,> 100 µM
CCOC(=O)CNC(=O)NC1CCc2ccc(N)cc21 (stereo not drawn) [Compound 32],EC50,HCV genotype 1b replicon; [7],8 ± 1.3 µM
same,EC50,HCoV-229E; Human coronavirus 229E,71.5 ± 4.3 µM
same,CC50,[5],> 100 µM
same,IC50,CypB; [8],8.7 ± 1.5 µM
same,IC50,CypA,7.4 ± 6.8 µM
same,IC50,CypD,12.8 ± 2.5 µM
same,CC50 at 72 h,[6],> 100 µM
COC(=O)CS(=O)(=O)c1ccccc1 [Fragment 1],% CypD inhibition (%I) at 1 mM,CypD,40%
same,LE (ligand efficiency),CypD,< 0.29
O=S1(=O)CC=CC1 [Fragment 2],% CypD inhibition (%I) at 1 mM,CypD,2%
Nc1ccc(C(=O)O)cc1 [Fragment 3],% CypD inhibition (%I) at 1 mM,CypD,32%
same,LE (ligand efficiency),CypD,< 0.42
ON=Cc1ccccc1 [Fragment 8],% CypD inhibition (%I) at 1 mM,CypD,32%
same,LE (ligand efficiency),CypD,< 0.46
Nc1ccc(S(=O)(=O)NC(=O)c2ccccc2)cc1 [Fragment 9],% CypD inhibition (%I) at 1 mM,CypD,39%
same,LE (ligand efficiency),CypD,< 0.24
O=CN1CCCC1 [Fragment 13],IC50,CypB; [8],> 5000 µM
same,IC50,CypA,> 5000 µM
same,IC50,CypD; [9],> 5000 µM
"O=C(NC(=O)c1c(F)cccc1Cl)NC1c2ccccc2-c2ccccc21 [TMN-355, reference compound]",EC50,HCV genotype 1b replicon; [10],> 50 µM
same,CC50,Huh7 cells,4.48 ± 2.1 µM
same,IC50,CypB; [8],> 100 µM
same,IC50,CypD; [9],> 100 µM
same,CC50,MRC5 cells,1.04 ± 0.46 µM

# Reference: paper PMC5036131, “Fragment-based discovery of a new family of non-peptidic small-molecule cyclophilin inhibitors with potent antiviral activities” (Nature Communications, 2016)
